The results in this text go back to patent publication US20100040552A1, “METHODS TO EVALUATE GLUCOCORTICOID RECEPTOR AGONISTS AND ANTAGONISTS FOR EFFECTS ON NEURON-LIKE CELLS” (ROSETTA INPHARMATICS LLC, priority 2005, published 2010).

Assay [1] deals with T1, Glucocorticoid Receptor (Homo sapiens, UniProt P04150).
T1 sequence (P04150 1-777): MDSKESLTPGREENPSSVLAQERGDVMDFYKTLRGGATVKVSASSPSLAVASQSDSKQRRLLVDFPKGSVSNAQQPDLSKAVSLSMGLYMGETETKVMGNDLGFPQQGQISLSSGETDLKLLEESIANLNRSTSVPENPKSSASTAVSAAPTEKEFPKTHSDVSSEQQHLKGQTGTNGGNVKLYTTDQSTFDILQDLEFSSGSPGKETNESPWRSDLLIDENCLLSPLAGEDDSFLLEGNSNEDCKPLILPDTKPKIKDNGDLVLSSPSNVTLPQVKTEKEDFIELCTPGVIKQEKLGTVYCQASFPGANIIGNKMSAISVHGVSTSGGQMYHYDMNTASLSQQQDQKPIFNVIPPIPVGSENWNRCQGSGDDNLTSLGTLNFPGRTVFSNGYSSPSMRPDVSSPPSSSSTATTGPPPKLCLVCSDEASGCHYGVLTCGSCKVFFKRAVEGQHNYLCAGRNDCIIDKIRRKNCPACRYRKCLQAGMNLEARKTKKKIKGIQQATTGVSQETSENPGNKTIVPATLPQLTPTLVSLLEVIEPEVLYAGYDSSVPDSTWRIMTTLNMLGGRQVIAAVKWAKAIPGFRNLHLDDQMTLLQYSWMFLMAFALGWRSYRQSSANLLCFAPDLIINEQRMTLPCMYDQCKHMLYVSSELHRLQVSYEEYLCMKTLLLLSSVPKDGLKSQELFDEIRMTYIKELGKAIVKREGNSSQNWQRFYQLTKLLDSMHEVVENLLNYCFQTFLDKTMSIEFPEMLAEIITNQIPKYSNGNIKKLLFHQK
The assay can be described thus: Transrepression assay, COS cells. In kind it is cell-based. Further details: host or cells: COS cells. The following applies: COS.

In assay [2] the target is T1, Glucocorticoid Receptor. Put plainly: Transactivation assay, A549 cells. In kind it is cell-based. The following applies: A549, read-out: Transactivation, A549 Emax.
Assay [3] concerns the target T1, Glucocorticoid Receptor. The assay can be described thus: Transactivation assay, MDA cells. In kind it is cell-based. Further details: host or cells: MDA cells. The following applies: read-out: Transactivation, MDA Emax.
The test system of a further assay is A549 cells. Put plainly: A549 cell molecular profiling experiment. Type of assay: cell-based. Particulars: 100 nM.
In assay [4] the test system is CA77 cells. Put plainly: CA77 cell assay, real-time RT-PCR (TaqMan). In kind it is cell-based, rat. The following applies: CA77 cells. As to the method:
Assay: CA77 cells were plated into 96 well tissue culture dishes at a density of 8×10^4 cells per well in 200 μl of PM and the cultures maintained in a humidified air atmosphere (7.5% CO2) at 37° C. This media was aspirated after 24 hours and replaced with 200 μl of GM and the cultures incubated as before, for an additional 48 hours, at which time the cultures were at approximately 90% confluency.
For the evaluation of agonist activity, the GM was aspirated, replaced with 200 μl of fresh GM containing concentrations of a drug ranging from 0.1 nM to 10,000 nM in a 10-fold dilution series. Control wells of 0 nM drug in GM and 0.1% DMSO in GM were included in the series for each drug. Each drug concentration and the two controls were evaluated on 4 wells. The cultures were maintained in a humidified air atmosphere (7.5% CO2) at 37° C. for 24 hours.
Control wells of 0 nM drug in GM containing 250 nM corticosterone and 0.1% DMSO in GM (without corticosterone) were included in the series for each drug. Each drug concentration and the two controls were evaluated on 4 wells. The cultures were maintained in a humidified air atmosphere (7.5% CO2) at 37° C. for 24 hours.
Lysis of Cells and Isolation of mRNA: Two methods were employed for the lysis of the cells and the isolation of mRNA at the end of the 24-hour incubation with the drugs.
One method was the mRNA Catcher™ Method (using Kit number 37001, sold by Invitrogen Corporation). The GM was aspirated from the cells, the cell monolayer was washed once with PBS (product number 10010, sold by Invitrogen Corporation), and then the cells were lysed in 30 μl of the kit lysis buffer containing 1% β-ME for 5 minutes at room temperature. The lysates were snap frozen in the 96-well plate by placing the plate on dry ice pellets, and the plate was then stored at −80° C.
The lysates were thawed at room temperature and then transferred into individual wells in the mRNA Catcher™ plate. The plate was covered and incubated for 90 minutes at room temperature for RNA hybridization. […]
In general terms: Real-time PCR tracks product formation cycle by cycle.

The subject of assay [5] is CA77 cells. Put plainly: CA77 cell microarray profiling. In kind it is cell-based, rat. As to the method: In order to reduce false positives, progesterone, estradiol, and aldosterone served as out-groups for non-specific effects. Samples were collected at both 6 hours and 24 hours after contacting the CA77 cells with a compound.

With `C[C@@H]1C[C@H]2[C@@H]3CCC4=CC(=O)C=C[C@]4(C)[C@@]3(F)[C@@H](O)C[C@]2(C)[C@@]1(O)C(=O)CO` [Dexamethasone, dexamethasone], the Emax at 0.3 µM at Glucocorticoid Receptor [1] (read-out: Transrepression, COS % Emax, 0.3 μM) was determined as 100%. For the same compound, the maximal effect (Emax) at 1 µM on Glucocorticoid Receptor [1] (read-out: Transrepression, COS % Emax, 1 uM) came out at 100%. Besides, the maximal effect (Emax) on Glucocorticoid Receptor [2] was found to be 118%. Also, the Emax at Glucocorticoid Receptor [3] was determined as 125%. Moreover, in the assay on A549 cells (set of 1091 genes), the “Up-regulated genes in category DMSO (<0%)” value was 0, the “Up-regulated genes in category Full (≧90%)” value turned out to be 1087, the “Up-regulated genes in category High (66.7-90%)” value is 4 and the “Up-regulated genes in category Low (0-33.3%)” value is 0. The “Up-regulated genes in category Middle (33.3-66.7%)” value with A549 cells (set of 1091 genes) came out at 0. Further, in the assay on A549 cells (set of 1249 genes), the “Down-regulated genes in category DMSO (<0%)” value came out at 0, the “Down-regulated genes in category Full (≧90%)” value was 1237, the “Down-regulated genes in category High (66.7-90%)” value turned out to be 12 and the “Down-regulated genes in category Low (0-33.3%)” value amounted to 0. For the same compound, the “Down-regulated genes in category Middle (33.3-66.7%)” value in the assay on A549 cells (set of 1249 genes) was determined as 0. Further, in the assay on CA77 cells [4], the “Sult1a1 up-regulation as detected by RT-PCR” value is 158 fold. The “Sult1a1 up-regulation as detected by microarray” value in the assay on CA77 cells [5] turned out to be 11 fold.

A word on the Emax: it is the greatest response seen or fitted, relative to the assay's reference.
